The source of these data is US12545650B2, “Bisanthracene derivatives having solubilizing substituent, and organic electroluminescence device using same” (LG Chem, Ltd., priority 2020, dated 2026).

This series is described as follows: Solubility test of PAPAP derivatives in cyclohexanone with thermal stirring. The series is classed as physicochemical. The note with it: 10 mg compound in 1 mL cyclohexanone, thermal stirring at about 100° C. How it is done:
Solubility tests were performed on PAPAP-1 and PAPAP-0 obtained from the Synthetic Example using cyclohexanone as a solvent. 10 mg of each of PAPAP-1 and PAPAP-0 was measured, 1 mL of cyclohexanone was added thereto, and thermal stirring was performed at a temperature of about 100° C.
The solubilities of PAPAP-12 and PAPAP-1 were tested using cyclohexanone as a solvent. 10 mg of each of PAPAP-12 and PAPAP-1 was measured, 1 mL of cyclohexanone was added thereto, and thermal stirring was performed at a temperature of about 100° C.

Consider `c1ccc(-c2ccccc2-c2c3ccccc3c(-c3ccc(-c4c5ccccc5c(-c5ccc(N(c6ccccc6)c6ccccc6)cc5)c5ccccc45)cc3)c3ccccc23)cc1` [PAPAP-1], for which the solubility in cyclohexanone entry is “soluble”.
On to `COc1ccc(-c2c3ccccc3c(-c3ccc(-c4c5ccccc5c(-c5ccc(C#N)cc5)c5ccccc45)cc3)c3ccccc23)cc1` [PAPAP-0, reference compound], for which the solubility in cyclohexanone entry was “insoluble”.
Under `c1ccc(-c2ccccc2-c2c3ccccc3c(-c3ccc(-c4c5ccccc5c(-c5cccc(N(c6ccccc6)c6ccccc6)c5)c5ccccc45)cc3)c3ccccc23)cc1` [PAPAP-12] stands “soluble”.
